Test results published in patent US20250019377A1 (JACOBIO PHARMACEUTICALS CO., LTD, priority 2021, published 2025).
Values joined by “and” are separate entries in the source; they are usually repeats but may differ in a detail not shown here. Identical values can stand only once. Like-named read-outs stand apart in the source and are kept apart here.

Assays:
[1] = tested on: RERF-LC-Ad1 cells (K-Ras G12A)
[2] = tested on: p-ERK in MKN-1 cells (K-Ras WT amplification); assay: Phospho-ERK1/2(THR202/TYR204) HTRF assay, MKN-1; type: cell-based; conditions: Homo sapiens; MKN-1, K-Ras WT, 2 hours incubation
[3] = tested on: NCI-H358 cells (K-Ras G12C)
[4] = tested on: p-ERK in NCI-H460 cells (K-Ras Q61H); assay: Phospho-ERK1/2(THR202/TYR204) HTRF assay, NCI-H460; type: cell-based; conditions: Homo sapiens, 2 hours incubation
[5] = tested on: p-ERK in NCI-H358 cells (K-Ras G12C); assay: Phospho-ERK1/2(THR202/TYR204) HTRF assay, NCI-H358; type: cell-based; conditions: Homo sapiens, 2 hours incubation
[6] = tested on: TCC-PAN2 cells (K-Ras G12R); assay: 3D cell growth inhibition assay, TCC-PAN2; type: cell-based; conditions: 144 h, 6 days, absolute IC50
[7] = tested on: p-ERK in AGS cells (K-Ras G12D); assay: Phospho-ERK1/2(THR202/TYR204) HTRF assay, AGS; type: cell-based; conditions: Homo sapiens, 2 h, 2 hours incubation
[8] = tested on: Capan-2 cells (K-Ras G12V)
SW620 cells (K-Ras G12V) = assay: 2D cell growth inhibition assay, SW620; type: cell-based; conditions: Homo sapiens, SW-620, 144 h, 6 days, absolute IC50
[9] = tested on: p-ERK in SW620 cells (K-Ras G12V); assay: Phospho-ERK1/2(THR202/TYR204) HTRF assay, SW620; type: cell-based; conditions: Homo sapiens, SW-620, 2 h, 2 hours incubation
[10] = tested on: p-ERK in NCI-H747 cells (K-Ras G13D)
[11] = tested on: NCI-H460 cells (K-Ras Q61H); assay: 3D cell growth inhibition assay, NCI-H460; type: cell-based; conditions: Homo sapiens, 144 h, 6 days, absolute IC50
[12] = tested on: p-ERK in TCC-PAN2 cells (K-Ras G12R); assay: Phospho-ERK1/2(THR202/TYR204) HTRF assay, TCC-PAN2; type: cell-based; conditions: 2 hours incubation
[13] = tested on: AsPC-1 cells (K-Ras G12D); assay: 2D cell growth inhibition assay, AsPC-1; type: cell-based; conditions: Homo sapiens, ASPC1, 144 h, AsPC-1, K-Ras G12D, 6 days, absolute IC50
MKN-1 cells (K-Ras WT) = assay: 3D cell growth inhibition assay, MKN-1; type: cell-based; conditions: Homo sapiens, 144 h, MKN-1, K-Ras WT, 6 days, absolute IC50
AGS cells (K-Ras G12D) = assay: 2D cell growth inhibition assay, AGS; type: cell-based; conditions: Homo sapiens, 144 h, 6 days, absolute IC50
[14] = tested on: NCI-H747 cells (K-Ras G13D)
K-Ras WT [15] = target: T1, K-Ras WT (Homo sapiens, UniProt P01116); assay: SOS1 catalyzed nucleotide exchange assay (GDP form K-Ras), K-Ras WT; conditions: read-out: K-Ras WT GDP Biochemical Activity (IC50)
K-Ras G13D [16] = target: T2, K-Ras G13D (Homo sapiens, UniProt P01116, G13D); assay: biochemical
K-Ras G12V [17] = target: T3, K-Ras G12V (Homo sapiens, UniProt P01116, G12V); assay: biochemical
K-Ras G12V [18] = target: T3, K-Ras G12V; assay: SOS1 catalyzed nucleotide exchange assay (GDP form K-Ras), K-Ras G12V; conditions: read-out: K-Ras G12V GDP Biochemical Activity (IC50)
K-Ras G13D [19] = target: T2, K-Ras G13D; assay: biochemical; remark: listed apart in the source
K-Ras WT [20] = target: T1, K-Ras WT; assay: biochemical

T3 sequence (P01116 1-169 isoform P01116-2 G12V): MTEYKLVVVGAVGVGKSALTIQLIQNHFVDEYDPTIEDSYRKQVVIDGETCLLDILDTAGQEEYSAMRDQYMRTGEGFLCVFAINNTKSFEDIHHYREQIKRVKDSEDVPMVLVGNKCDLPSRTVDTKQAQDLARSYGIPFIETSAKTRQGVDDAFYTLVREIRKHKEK
T1 sequence (P01116 1-169 isoform P01116-2): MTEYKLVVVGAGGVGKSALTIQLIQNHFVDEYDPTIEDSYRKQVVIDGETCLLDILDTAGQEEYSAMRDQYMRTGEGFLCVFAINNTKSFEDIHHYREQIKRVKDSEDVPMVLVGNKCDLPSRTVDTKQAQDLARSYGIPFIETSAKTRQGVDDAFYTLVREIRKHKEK
T2 sequence (P01116 1-169 isoform P01116-2 G13D): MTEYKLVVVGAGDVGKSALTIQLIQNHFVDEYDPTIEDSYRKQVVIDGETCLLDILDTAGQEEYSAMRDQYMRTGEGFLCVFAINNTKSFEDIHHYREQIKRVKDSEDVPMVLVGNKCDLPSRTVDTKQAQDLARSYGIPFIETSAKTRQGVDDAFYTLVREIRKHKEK

| SMILES | IC50 [2] | IC50 [3] | IC50 [4] | IC50 [5] | IC50 [6] | IC50 [7] | IC50 [8] | IC50 (SW620 cells (K-Ras G12V)) | IC50 [9] | IC50 [10] | IC50 [11] | IC50 [12] | IC50 [13] | IC50 (MKN-1 cells (K-Ras WT)) | IC50 (AGS cells (K-Ras G12D)) | IC50 [14] | IC50 (K-Ras WT [15]) | IC50 (K-Ras G13D [16]) | IC50 (K-Ras G12V [17]) | IC50 (K-Ras G12V [18]) | further results |
| --- | --- | --- | --- | --- | --- | --- | --- | --- | --- | --- | --- | --- | --- | --- | --- | --- | --- | --- | --- | --- | --- |
| C#Cc1c(F)ccc2cc(O)cc(-c3ncc4c(N5CCCO[C@@H]6C[C@@H]65)nc(OC[C@@]56CCCN5C[C@H](F)C6)nc4c3F)c12 (single isomer, unassigned) [Compound 7B] | 1 nM | 2.57 nM | 1.66 nM | 0.881 nM | 41 nM | 0.255 nM | 2.91 nM | 0.858 nM | 1.01 nM | 0.701 nM | 17.9 nM | 13.5 nM | 2.73 nM | 3.7 nM | 0.423 nM | 0.807 nM | – | – | – | – | IC50 [1]: 2.52 nM |
| C#Cc1c(F)ccc2cc(O)cc(-c3ncc4c(N5CCOC[C@@H](OC)C5)nc(OC[C@@]56CCCN5C[C@H](F)C6)nc4c3F)c12 (single isomer, unassigned) [Compound 49A] | – | – | – | – | – | – | – | – | 98.6 nM | – | – | – | – | – | – | – | 40.2 nM | 24.7 nM | 5620 nM | 11 nM | IC50 (K-Ras G13D [19]): > 100 nM |
| C#Cc1c(F)ccc2cc(O)cc(-c3ncc4c(N5CCOC[C@H](OC)C5)nc(OC[C@@]56CCCN5C[C@H](F)C6)nc4c3F)c12 (single isomer, unassigned) [Compound 49B] | – | – | – | – | – | 62.2 nM | – | 54.5 nM | 19.9 nM | – | – | – | 428 nM | – | 41.2 nM | – | 2 nM | > 100 nM | 552 nM | 0.77 nM | IC50 (K-Ras G13D [19]): > 100 nM; IC50 (K-Ras WT [20]): 144 nM |
| C#Cc1c(F)ccc2cc(O)cc(-c3ncc4c(N5CCCOCC5)nc(OC[C@@]56CCCN5C[C@H](F)C6)nc4c3F)c12 [Compound 1, 5-ethynyl-6-fluoro-4-(8-fluoro-2-(((2R,7aS)-2-fluorotetrahydro-1H-pyrrolizin-7a(5H)-yl)methoxy)-4-(1,4-oxazepan-4-yl)pyrido[4,3-d]pyrimidin-7-yl)naphthalen-2-ol trifluoroacetic acid] | 1.34 nM | – | 7.04 nM | 2.2 nM | 189 nM | 0.974 nM | 28.7 nM | 4.68 nM | 2.74 nM | 1.64 nM | 75.1 nM | 207 nM | 43.8 nM | 8.23 nM | 2.45 nM | 5.65 nM | – | – | – | – | IC50 [1]: 20.6 nM |
| C#Cc1c(F)ccc2cc(O)cc(-c3ncc4c(N5CCCOC6CC65)nc(OC[C@@]56CCCN5C[C@H](F)C6)nc4c3F)c12 (stereo partly drawn) [Compound 7, 4-(4-(2-oxa-6-azabicyclo[5.1.0]octan-6-yl)-8-fluoro-2-(((2R,7aS)-2-fluorotetrahydro-1H-pyrrolizin-7a(5H)-yl)methoxy)pyrido[4,3-d]pyrimidin-7-yl)-5-ethynyl-6-fluoronaphthalen-2-ol] | 3.44 nM | 2.32 nM | 2.95 nM | 1.67 nM | 165 nM | 0.82 nM | 7.34 nM | 1.33 nM | 2.21 nM | 0.919 nM | 39.8 nM | 31 nM | 12.8 nM | 3.46 nM | 0.778 nM | 3.17 nM | – | – | – | – | IC50 [1]: 5.2 nM |
| C#Cc1c(F)ccc2cc(O)cc(-c3ncc4c(N5CCCOCC5)nc(OC[C@@]56CCCN5C[C@H](OC)C6)nc4c3F)c12 [Compound 11, 5-ethynyl-6-fluoro-4-(8-fluoro-2-(((2R,7aS)-2-methoxytetrahydro-1H-pyrrolizin-7a(5H)-yl)methoxy)-4-(1,4-oxazepan-4-yl)pyrido[4,3-d]pyrimidin-7-yl)naphthalen-2-ol] | 19.5 nM | 62.6 nM | 63.8 nM | 2.53 nM | > 1000 nM | 14.9 nM | 311 nM | 34.1 nM | 18.7 nM | 17.6 nM | 866 nM | 560 nM | 380 nM | 28.1 nM | 40.6 nM | 56 nM | – | – | – | – | IC50 [1]: 150 nM |
| C#Cc1c(C)ccc2cc(O)cc(-c3ncc4c(N5CCCOCC5)nc(OC[C@@]56CCCN5C[C@H](F)C6)nc4c3F)c12 [Compound 38, 5-ethynyl-4-(8-fluoro-2-(((2R,7aS)-2-fluorotetrahydro-1H-pyrrolizin-7a(5H)-yl)methoxy)-4-(1,4-oxazepan-4-yl)pyrido[4,3-d]pyrimidin-7-yl)-6-methylnaphthalen-2-ol trifluoroacetic acid] | 10.6 nM | 13.6 nM | 14.9 nM | 2.23 nM | ≥ 1000 nM | 2.16 nM | 57.8 nM | 13.1 nM | 7.72 nM | 3.17 nM | 159 nM | 218 nM | 77.3 nM | 10 nM | 2.73 nM | 10.4 nM | – | – | – | – | – |
| C#Cc1c(Cl)ccc2cc(O)cc(-c3ncc4c(N5CCCOCC5)nc(OC[C@@]56CCCN5C[C@H](F)C6)nc4c3F)c12 [Compound 39, 6-chloro-5-ethynyl-4-(8-fluoro-2-(((2R,7aS)-2-fluorotetrahydro-1H-pyrrolizin-7a(5H)-yl)methoxy)-4-(1,4-oxazepan-4-yl)pyrido[4,3-d]pyrimidin-7-yl)naphthalen-2-ol trifluoroacetic acid] | 9.92 nM | – | 9.92 nM | 1.38 nM | 949 nM | – | – | 9.66 nM | 3.36 nM | – | 125 nM | 156 nM | 61.2 nM | 7.34 nM | 2.09 nM | – | – | – | – | – | – |
| C#Cc1c(F)ccc2cc(O)cc(-c3nc(NC)c4c(N5CCCOCC5)nc(OC[C@@]56CCCN5C[C@H](F)C6)nc4c3F)c12 [Compound 53, 5-ethynyl-6-fluoro-4-(8-fluoro-2-(((2R,7aS)-2-fluorotetrahydro-1H-pyrrolizin-7a(5H)-yl)methoxy)-5-(methylamino)-4-(1,4-oxazepan-4-yl)pyrido[4,3-d]pyrimidin-7-yl)naphthalen-2-ol trifluoroacetic acid] | 9.74 nM | 47.2 nM | 17.5 nM | 3.86 nM | ≥ 1000 nM | 2.66 nM | 153 nM | 19.4 nM | 6.18 nM | 6.93 nM | 24 nM | 456 nM | 88.2 nM | 25.7 nM | 9.17 nM | 34 nM | – | – | – | – | – |
| C#Cc1c(F)ccc2cc(O)cc(-c3ncc4c(N5CCC6CC5CO6)nc(OC[C@@]56CCCN5C[C@H](F)C6)nc4c3F)c12 (some centres unmarked) [Compound 93] | – | – | – | – | – | – | – | 182 nM | 51.6 nM | – | – | – | – | – | – | – | 56 nM and 13.5 nM | > 200 nM | 2880 nM and 2030 nM | 19.9 nM and 4.42 nM | IC50 (K-Ras G13D [19]): > 100 nM; IC50 (K-Ras WT [20]): 680 nM |
| C#Cc1c(F)ccc2cc(O)cc(-c3ncc4c(N5CCCOCC5)nc(OCC5CN(C(=O)C=C)CCN5C)nc4c3F)c12 (centres unmarked) [Compound 98, 1-(3-(((7-(8-ethynyl-7-fluoro-3-hydroxy-naphthalen-1-yl)-8-fluoro-4-(1,4-oxazepan-4-yl)pyrido[4,3-d]pyrimidin-2-yl)oxy)methyl)-4-methylpiperazin-1-yl)prop-2-en-1-one] | – | – | – | – | – | – | – | – | – | – | – | – | – | – | – | – | 318 nM | > 200 nM | 8190 nM | 54.5 nM | IC50 (K-Ras G13D [19]): > 100 nM; IC50 (K-Ras WT [20]): > 5000 nM |
| C#Cc1c(F)ccc2cc(O)cc(-c3ncc4c(N5CCCOCC5)nc(OCC5CC6CCN5CC6)nc4c3F)c12 (centres unmarked) [Compound 99, 5-ethynyl-6-fluoro-4-(8-fluoro-4-(1,4-oxa-zepan-4-yl)-2-(quinuclidin-2-ylmethoxy)pyrido[4,3-d]pyrimidin-7-yl)naphthalen-2-ol] | – | – | – | – | – | – | – | – | – | – | – | – | – | – | – | – | 34.3 nM | > 100 nM | 2910 nM | 22.6 nM | IC50 (K-Ras G13D [19]): > 100 nM |
